Data: patent EP0181109B1, “N6-benzopyrano- and benzothiopyrano-adenosines” (WARNER-LAMBERT COMPANY, priority 1984, dated 1986)

Columns and labels:
conscious rat = assay: Antihypertensive evaluation (AHP3): direct monitoring of aortic blood pressure and heart rate from conscious rats; assay type: in vivo
Experimental: This test procedure is described in the following paragraphs.
The continuous monitoring of pulsatile blood pressure (BP) from unrestrained conscious rats surgically equipped with polyethylene cannulas was accomplished by means of a computer assisted data capture scheme (CADCS). The basic elements of the methodology are the cannulation procedure and the CADCS.
Cannulation Procedure: Rats were anesthetized with Telazol (1:1 tiletamine HCI and zolazepam HCI); 20-40 mg/kg IM and the descending aorta exposed via a midline incision. Cannulas fabricated from polyethylene tubing were inserted into the aorta via an undersized puncture hole below the renal arteries. The puncture hole was made by a 23 G disposable needle with a section of the aorta clamped off above and below the puncture site. The cannulas, consisting of a PE100 (0.86 mm ID) body and a PE50 (0.58 mm ID) tip, were attached to a trocar, inserted through the psoas muscle, and passed subcutaneously along the midline of the back and externalized between the ears. The cannulas were anchored to the psoas muscle and between the scalulae (3-0 green braided suture). The midline incision was closed in two steps (muscle first, skin second) using continuous over-and over sutures (4-0 chronic). Each rat was then given penicillin 30,000 units subcutaneously (Penicillin G Procaine Sterile Suspension).
The rats were fitted with a harness-spring-swivel assembly designed to protect the cannula and to provide the rat relative freedom of movement. The harnesses were fabricated from nylon hook and loop tape cemented to a metal plate to which spring wires (18-8 stainless steel), were attached to brass swivels. Each polyethylene cannula was channeled through a spring and connected through a swivel to a pressure transducer (Model P23Gb; Statham Instruments; Hato Rey, Puerto Rico) and an infusion pump (Sage model 234-7; Orion Research, Cambridge, MA) by means of PE100 tubing. While on test, each rat received a continuous slow infusion of heparinized saline solution (approximately 400 I or 40 units of heparin per 24 hour period) to prevent clot formation. Additional "flushes" of the cannula with heparinized saline were carried out when the aortic pulse pressure (systolic minus diastolic) was less than 25 mm Hg.
CADCS: The pulsatile blood pressure and heart rate of each of 32 rats was monitored every minute by means of two in-laboratory microcomputers communicating directly with a data concentrator computer. The data were first stored on the data concentrator disk and the transferred to a magnetic tape for analysis and report generation by the main research computer. The overall scheme involved modulating the primary signal from the pressure transducer, generating the primary data set of the one-minute values for systolic, diastolic, and mean blood pressures and heart rate by the in-lab microcomputer and the storage, analysis, and report generation by the main research computer.
The transducers were connected to analog signal conditioning modules. The modules provided a regulated excitation voltage for the transducers, amplification as required to interface the microprocessors and an active low pass filter to compensate for the pressure wave form distortion produced by the fexible, fluid filled, narrow cannula. The distortion was 22-26 Hz and this provided a reliable estimate of both systolic and diastolic blood pressure.
The microcomputers (one for each of the two groups of 16 rats) were connected to the input components through the module interface units, an analog-to-digital converter for the pressure wave form signal and the digital inputs for the dose and event marker switches. The microcomputer controlled the sequential acquisition of data from the modular interface units through an internal synchronous time-of- day clock/time base generator. […]

Carrageenan pleurisy = assay: Carrageenan Pleurisy Assay; assay type: in vivo; conditions: IP route, rat
Experimental: Assessment of another activity is provided by the carrageenan pleurisy assay. This assay indicates antiinflammatory activity. Carrageenan pleurisy is induced as previously described by Carter, G. W., et al., in J. Pharm. Pharmacol 34:66-67, 1982. Carrageenan ([…]) is injected intrapleurally in a 0.25 ml volume of pyrogen-free saline. Four hours later, the rats are sacrificed and 2 ml of a phenol red solution (325 mg phenol red in 1 liter of 0.05 M phosphate buffered saline) are added to each pleural cavity. The contents of the cavities are mixed and transferred to glass test tubes. A 50 pl aliquot is removed from each tube and exudate cells are counted after red blood cells lysis (with Zapoglobin; Coulter Electronics, Hialeah FL) using a Coulter model ZBI counter. The remaining exudate-phenol red mixture is centrifuged at […] for 15 minutes. One hundred pl of the supernatent fluid is diluted with 3.9 ml of phosphate buffer (0.072 M of tribasic sodium phosphate Na3PO4·12H2O, in water) and the absorbance is measured at 650 nm.
Exudate volume is calculated as follows: [formula] where V1 = unknown volume of exudate, V2 = volume of dye added to cavity (2 ml), A1 = absorbance of exudate (assumed to be zero), A2 = absorbance of the phenol red solution, A3 = absorbance of exudate and phenol red solution.
Inhibition of exudate or formation is calculated by the following equations: • % inhibition (exudate) = [formula] • % inhibition (cell count) = [formula] ID50 values are calculated by Probit analysis.
The compound of Example 1 was adminstered one hour prior to carrageenan injection.

[1] = 10 mg/kg, Hour 5, conscious rat
[2] = 10 mg/kg, Hour 3, conscious rat

Cc1ccc2c(c1C)OCC(Nc1ncnc3c1ncn3[C@@H]1O[C@H](CO)[C@@H](O)[C@H]1O)C2 (stereo partly shown) [Example 10, N^6-[7,8-Dimethyl-3-chromanylamino]adenosine]
HR change (conscious rat; 3 mg/kg, Hour 5, conscious rat): 0%

OC[C@H]1O[C@@H](n2cnc3c(NC4COc5c(Cl)cccc5C4)ncnc32)[C@H](O)[C@@H]1O (stereo partly shown) [Example 5]
HR change (conscious rat; [1]): 0%
% Inhibition Exudate (Carrageenan pleurisy; 3 mg/kg): 22.7%
% Inhibition WBC (Carrageenan pleurisy; 3 mg/kg): 27.2%
% Inhibition Exudate (Carrageenan pleurisy; 10 mg/kg): 40.2%
% Inhibition WBC (Carrageenan pleurisy; 10 mg/kg): 68.0%

COc1ccc2c(c1)CC(Nc1ncnc3c1ncn3[C@@H]1O[C@H](CO)[C@@H](O)[C@H]1O)CO2 (stereo partly shown) [Example 6]
% Inhibition Exudate (Carrageenan pleurisy; 1 mg/kg): 50.9%
% Inhibition WBC (Carrageenan pleurisy; 1 mg/kg): 49.8%
% Inhibition Exudate (Carrageenan pleurisy; 3 mg/kg): 42.2%
% Inhibition WBC (Carrageenan pleurisy; 3 mg/kg): 37.5%

OC[C@H]1O[C@@H](n2cnc3c(NC4CCSc5ccccc54)ncnc32)[C@H](O)[C@@H]1O (stereo partly shown) [Example 15]
% Inhibition Exudate (Carrageenan pleurisy; 1 mg/kg): 13.5%
% Inhibition WBC (Carrageenan pleurisy; 1 mg/kg): -10.7%
% Inhibition Exudate (Carrageenan pleurisy; 10 mg/kg): 63.9%
% Inhibition WBC (Carrageenan pleurisy; 10 mg/kg): -16.9%

Cc1cc2c(cc1C)OCC(Nc1ncnc3c1ncn3[C@@H]1O[C@H](CO)[C@@H](O)[C@H]1O)C2 (stereo partly shown) [Example 9, N^6-[6,7-Dimethyl-3-chromanylamino]adenosine]
HR change (conscious rat; 10 mg/kg, Hour 7, conscious rat): 0%
% Inhibition Exudate (Carrageenan pleurisy; 3 mg/kg): 12.5%
% Inhibition WBC (Carrageenan pleurisy; 3 mg/kg): 13.0%
% Inhibition Exudate (Carrageenan pleurisy; 30 mg/kg): 31.9%
% Inhibition WBC (Carrageenan pleurisy; 30 mg/kg): 30.6%

Cc1ccc2c(c1C)OC(C)C(Nc1ncnc3c1ncn3[C@@H]1O[C@H](CO)[C@@H](O)[C@H]1O)C2 (stereo partly shown) [Example 11]
HR change (conscious rat; [2]): 0%
HR change (conscious rat; [1]): 0%

COc1cc(OC)c2c(c1)OC(C)(C)CC2Nc1ncnc2c1ncn2[C@@H]1O[C@H](CO)[C@@H](O)[C@H]1O (stereo partly shown) [Example 14]
MAP change (conscious rat; [2]): 0%
